This note sets out measurements from patent publication US20260022142A1, “MACROCYCLIC IMMUNOMODULATORS” (Bristol-Myers Squibb Company, priority 2022, published 2026).

Molecules are shown by their SMILES. Bridge positions count the residues as written; N and C are the ends. Square brackets hold non-standard residues; d marks the D form. Peptide text beside a SMILES is read from it. * marks the point of attachment. Phe(3-CF3) = N[C@@H](Cc1cccc(C(F)(F)F)c1)C(=O)O; Phe(4-COOH) = N[C@@H](Cc1ccc(C(=O)O)cc1)C(=O)O; Bip = N[C@@H](Cc1ccc(-c2ccccc2)cc1)C(=O)O; NH(CH2)14COOH = O=C(O)CCCCCCCCCCCCCCN*; NH(CH2)12COOH = O=C(O)CCCCCCCCCCCCN*; Val(3-OH) = CC(C)(O)[C@H](N)C(=O)O; Cha = N[C@@H](CC1CCCCC1)C(=O)O; PEG4 = NCCOCCOCCOCCOCCC(=O)O; Carboxymethyl = O=C(O)C*; Orn = NCCC[C@H](N)C(=O)O; Dab = NCC[C@H](N)C(=O)O; Nva = CCC[C@H](N)C(=O)O

The target of the test is T1, PD-1/PD-L1 interaction (PE-labeled human PD-L1-Ig binding to Jurkat cell line over-expressing human PD-1) (Homo sapiens, UniProt Q15116).
T1 construct: expressed in transfected cells; host or cells: Jurkat
T1 sequence (Q15116 25-288): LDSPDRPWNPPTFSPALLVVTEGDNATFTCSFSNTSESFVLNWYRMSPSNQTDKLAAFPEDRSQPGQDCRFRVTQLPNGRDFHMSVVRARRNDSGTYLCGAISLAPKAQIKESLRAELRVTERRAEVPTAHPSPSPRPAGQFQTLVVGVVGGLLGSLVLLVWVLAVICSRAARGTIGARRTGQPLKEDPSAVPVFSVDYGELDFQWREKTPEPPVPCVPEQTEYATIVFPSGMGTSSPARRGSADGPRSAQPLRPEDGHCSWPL
Briefly: Jurkat-PD-1 Cell Binding High-Content Screening Assay (CBA). Format: cell-based. As to conditions: Jurkat cell line over-expressing human PD-1; PE-labeled PD-L1-Ig 20 nM final; read-out: Jurkat hPD1-PDL1 IC50. The method, boiled down:
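Human PD-L1-Ig carrying a covalent PE label on its Ig tag serves as the probe, applied at 20 nM final to compound-treated (2 h, 37° C) Jurkat-hPD-1 cells in medium with 10% fetal calf serum. After one hour, fixation and nuclear staining precede high-content image analysis.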
For `COC[C@@H]1NC(=O)CSC[C@@H](C(=O)N[C@@H](CCN)C(=O)NCCOCCOCCOCCOCCC(=O)NCCCCCCCCCCCCC(=O)O)NC(=O)[C@H](CO)NC(=O)[C@H](C(C)(C)O)NC(=O)[C@H](CC2CCCCC2)NC(=O)[C@H](CCN)NC(=O)[C@@H](CC(C)C)NC(=O)[C@H](CCCN)NC(=O)[C@H](Cc2ccc(C(=O)O)cc2)NC(=O)[C@H](Cc2ccc(-c3ccccc3)cc2)NC(=O)[C@H](Cc2ccc(C(=O)O)cc2)NC(=O)[C@H](Cc2cccc(C(F)(F)F)c2)NC(=O)[C@H](CC(=O)O)NC(=O)[C@H](Cc2ccc(OCC(=O)O)cc2)NC1=O` [Compound 2905] ({CH2CO}-S(Me)Y(Carboxymethyl)D[Phe(3-CF3)][Phe(4-COOH)][Bip][Phe(4-COOH)][Orn][dL][Dab][Cha][Val(3-OH)]SC[Dab][PEG4]-{NH(CH2)12COOH}; thioether N-14), the IC50 (as a rule, the concentration that inhibits the measured activity by half) came to 0.0706 µM.

Consider `CCC[C@@H]1NC(=O)CSC[C@@H](C(=O)N[C@@H](CCN)C(=O)NCCOCCOCCOCCOCCC(=O)NCCCCCCCCCCCCCCC(=O)O)NC(=O)[C@H](CO)NC(=O)[C@H](C(C)(C)O)NC(=O)[C@H](CC2CCCCC2)NC(=O)[C@H](CCN)NC(=O)[C@@H](CC(C)C)NC(=O)[C@H](CCCN)NC(=O)[C@H](Cc2ccc(C(=O)O)cc2)NC(=O)[C@H](Cc2ccc(-c3ccccc3)cc2)NC(=O)[C@H](Cc2ccc(C(=O)O)cc2)NC(=O)[C@H](Cc2cccc(C(F)(F)F)c2)NC(=O)[C@H](CC(=O)O)NC(=O)[C@H](Cc2ccc(OCC(=O)O)cc2)NC1=O` [Compound 2906] ({CH2CO}-[Nva]Y(Carboxymethyl)D[Phe(3-CF3)][Phe(4-COOH)][Bip][Phe(4-COOH)][Orn][dL][Dab][Cha][Val(3-OH)]SC[Dab][PEG4]-{NH(CH2)14COOH}; thioether N-14), for which the IC50 was 0.0977 µM.

As for `COC[C@@H]1NC(=O)CSC[C@@H](C(=O)N[C@@H](CCN)C(=O)NCCCCCCCCCCCCC(=O)O)NC(=O)[C@H](CO)NC(=O)[C@H](C(C)(C)O)NC(=O)[C@H](CC2CCCCC2)NC(=O)[C@H](CCN)NC(=O)[C@@H](CC(C)C)NC(=O)[C@H](CCCN)NC(=O)[C@H](Cc2ccc(C(=O)O)cc2)NC(=O)[C@H](Cc2ccc(-c3ccccc3)cc2)NC(=O)[C@H](Cc2ccc(C(=O)O)cc2)NC(=O)[C@H](Cc2cccc(C(F)(F)F)c2)NC(=O)[C@H](CC(=O)O)NC(=O)[C@H](Cc2ccc(OCC(=O)O)cc2)NC1=O` [Compound 2907] ({CH2CO}-S(Me)Y(Carboxymethyl)D[Phe(3-CF3)][Phe(4-COOH)][Bip][Phe(4-COOH)][Orn][dL][Dab][Cha][Val(3-OH)]SC[Dab]-{NH(CH2)12COOH}; thioether N-14), the IC50 came to 0.0418 µM.

Regarding `COC[C@@H]1NC(=O)CSC[C@@H](C(=O)N[C@@H](CCN)C(=O)NCCCCCCCCCCCCCCC(=O)O)NC(=O)[C@H](CO)NC(=O)[C@H](C(C)(C)O)NC(=O)[C@H](CC2CCCCC2)NC(=O)[C@H](CCN)NC(=O)[C@@H](CC(C)C)NC(=O)[C@H](CCCN)NC(=O)[C@H](Cc2ccc(C(=O)O)cc2)NC(=O)[C@H](Cc2ccc(-c3ccccc3)cc2)NC(=O)[C@H](Cc2ccc(C(=O)O)cc2)NC(=O)[C@H](Cc2cccc(C(F)(F)F)c2)NC(=O)[C@H](CC(=O)O)NC(=O)[C@H](Cc2ccc(OCC(=O)O)cc2)NC1=O` [Compound 2908] ({CH2CO}-S(Me)Y(Carboxymethyl)D[Phe(3-CF3)][Phe(4-COOH)][Bip][Phe(4-COOH)][Orn][dL][Dab][Cha][Val(3-OH)]SC[Dab]-{NH(CH2)14COOH}; thioether N-14), the IC50 was determined as 0.541 µM.
